# Like-named read-outs stand apart in the source and are kept apart here.
# Key:
# Assay type in all cases: in vivo
# wild oat (Avena fatua) = assay: Test B postemergence
# Method in brief: (§1)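 Scores reflect visual comparison with untreated controls, where 0 means no effect and 100 complete control. Plants stayed 13 to 15 days in the greenhouse after pre- or postemergence treatment with compounds carried in a non-phytotoxic solvent and surfactant.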
# [1] = tested on: blackgrass (Alopecurus myosuroides); assay: Test B postemergence
# Method in brief: as §1
# [2] = tested on: barnyardgrass (Echinochloa crus-galli); assay: Test B flooded paddy test; settings: Echinochloa crus-galli, Flood, 1000 g ai/ha; scale 0 (no effect) to 100 (complete control); read-out: Plant response rating, Barnyardgrass
# Method in brief: (§2)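 Plants were grown to the 2-leaf stage before treatment, then kept in a greenhouse for 13 to 15 days. Injury was rated visually against untreated controls on a 0 to 100 scale, where 0 is no effect and 100 is complete control.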
# rice (Oryza sativa) = assay: Test B flooded paddy test; settings: Oryza sativa, Flood, 1000 g ai/ha; scale 0 to 100; read-out: Plant response rating, Rice
# Method in brief: as §2
# [3] = tested on: umbrella sedge (Cyperus difformis); assay: Test B flooded paddy test; settings: Cyperus difformis, Flood, 1000 g ai/ha; scale 0 to 100; read-out: Plant response rating, Sedge, Umbrella
# Method in brief: as §2
# [4] = tested on: duck salad (Heteranthera limosa); assay: Test B flooded paddy test; settings: Heteranthera limosa, Flood, 1000 g ai/ha; scale 0 to 100; read-out: Plant response rating, Ducksalad
# Method in brief: as §2
# [5] = tested on: morningglory (Ipomoea coccinea); assay: Test B pre/postemergence; settings: for pest or weed control at 500 g/ha: 500 g ai/ha
# Method in brief: as §1
# [6] = tested on: crabgrass (Digitaria sanguinalis); assay: Test B pre/postemergence; settings: for pest or weed control at 500 g/ha: 500 g ai/ha
# Method in brief: as §1
# corn (Zea mays) = assay: Test B pre/postemergence
# Method in brief: as §1
# [7] = tested on: cocklebur (Xanthium strumarium); assay: Test B pre/postemergence; settings: Xanthium strumarium; for pest or weed control at 125 g/ha: 125 g ai/ha; for pest or weed control at 500 g/ha: 500 g ai/ha
# Method in brief: as §1
# [8] = tested on: lambsquarters (Chenopodium album); assay: Test B pre/postemergence; settings: Chenopodium album; for pest or weed control at 125 g/ha: 125 g ai/ha; for pest or weed control at 500 g/ha: 500 g ai/ha
# Method in brief: as §1
# [9] = tested on: pigweed (Amaranthus retroflexus); assay: Test B pre/postemergence; settings: Amaranthus retroflexus; for pest or weed control at 125 g/ha: 125 g ai/ha; for pest or weed control at 500 g/ha: 500 g ai/ha
# Method in brief: as §1
# [10] = tested on: velvetleaf (Abutilon theophrasti); assay: Test B pre/postemergence; settings: Abutilon theophrasti; for pest or weed control at 125 g/ha: 125 g ai/ha; for pest or weed control at 500 g/ha: 500 g ai/ha
# Method in brief: as §1
# [11] = tested on: barnyardgrass (Echinochloa crus-galli); assay: Test B pre/postemergence; settings: for pest or weed control at 500 g/ha: 500 g ai/ha
# Method in brief: as §1
# [12] = tested on: giant foxtail (Setaria faberii); assay: Test B pre/postemergence; settings: for pest or weed control at 500 g/ha: Setaria faberi, 500 g ai/ha
# Method in brief: as §1
# [13] = tested on: Surinam grass (Brachiaria decumbens); assay: Test B pre/postemergence; settings: Urochloa decumbens; for pest or weed control at 125 g/ha: 125 g ai/ha; for pest or weed control at 500 g/ha: 500 g ai/ha
# Method in brief: as §1
# [14] = tested on: wheat (Triticum aestivum); assay: Test B pre/postemergence; settings: for plant injury at 500 g/ha: 500 g ai/ha
# Method in brief: as §1
# [15] = 125 g ai/ha, scale 0 to 100 (0 no effect, 100 complete control)
# [16] = Preemergence, 125 g ai/ha, scale 0 to 100 (0 no effect, 100 complete control)
# [17] = Postemergence, 125 g ai/ha, scale 0 to 100 (0 no effect, 100 complete control)
compound,measurement,setting,value
Nc1nc(C2CC2)nc(C(=O)O)c1Br [Compound 8],"Oat, Wild plant response rating",wild oat (Avena fatua); [15],0
same,pest or weed control at 500 g/ha,"wild oat (Avena fatua); Avena fatua, post-emergence, 500 g ai/ha, scale 0 to 100, read-out: Plant response rating, Oat, Wild",0%
same,Blackgrass plant response rating,[1]; [15],0
same,pest or weed control at 500 g/ha,"[1]; Alopecurus myosuroides, post-emergence, 500 g ai/ha, scale 0 to 100, read-out: Plant response rating, Blackgrass",0%
same,pest or weed control at 1000 g/ha,[2],70%
same,plant injury at 1000 g/ha,rice (Oryza sativa),60%
same,pest or weed control at 1000 g/ha,[3],40%
same,pest or weed control at 1000 g/ha,[4],90%
same,pest or weed control at 125 g/ha,"[5]; Ipomoea, post-emergence, Postemergence, 125 g ai/ha, scale 0 to 100 (0 no effect, 100 complete control), read-out: Morningglory plant response rating",100%
same,pest or weed control at 500 g/ha,"[5]; Ipomoea, post-emergence, Postemergence, scale 0 to 100, read-out: Plant response rating, Morningglory",100%
same,pest or weed control at 500 g/ha,"[5]; Ipomoea, pre-emergence, Preemergence, scale 0 to 100 (0 no effect, 100 complete control), read-out: Morningglory plant response rating",100%
same,"Plant response rating, Morningglory",[5]; [16],100
same,pest or weed control at 500 g/ha,"[6]; Digitaria sanguinalis, post-emergence, Postemergence, scale 0 to 100, read-out: Plant response rating, Crabgrass",90%
same,pest or weed control at 125 g/ha,"[6]; Digitaria sanguinalis, pre-emergence, Preemergence, 125 g ai/ha, scale 0 to 100 (0 no effect, 100 complete control), read-out: Plant response rating, Crabgrass",80%
same,pest or weed control at 500 g/ha,"[6]; Digitaria sanguinalis, pre-emergence, Preemergence, scale 0 to 100 (0 no effect, 100 complete control), read-out: Crabgrass plant response rating",90%
same,Crabgrass plant response rating,[6]; [17],80
same,Corn plant response rating,corn (Zea mays); [17],70
same,"Plant response rating, Corn",corn (Zea mays); [16],90
same,"Corn plant response rating (crop injury, 0 = no effect, 100 = complete kill) at 500 g/ha","corn (Zea mays); Zea mays, post-emergence, Postemergence, 500 g ai/ha, scale 0 to 100",90%
same,plant injury at 500 g/ha,"corn (Zea mays); Zea mays, pre-emergence, Preemergence, 500 g ai/ha, scale 0 to 100 (0 no effect, 100 complete control), read-out: Corn plant response rating",90%
same,pest or weed control at 125 g/ha,"[7]; post-emergence, Postemergence, scale 0 to 100 (0 no effect, 100 complete control), read-out: Cocklebur plant response rating",100%
same,pest or weed control at 500 g/ha,"[7]; post-emergence, Postemergence, scale 0 to 100, read-out: Plant response rating, Cocklebur",100%
same,pest or weed control at 125 g/ha,"[7]; pre-emergence, Preemergence, scale 0 to 100 (0 no effect, 100 complete control), read-out: Plant response rating, Cocklebur",90%
same,pest or weed control at 500 g/ha,"[7]; pre-emergence, Preemergence, scale 0 to 100 (0 no effect, 100 complete control), read-out: Cocklebur plant response rating",100%
same,pest or weed control at 125 g/ha,"[8]; post-emergence, Postemergence, scale 0 to 100 (0 no effect, 100 complete control), read-out: Lambsquarters plant response rating",100%
same,pest or weed control at 500 g/ha,"[8]; post-emergence, Postemergence, scale 0 to 100, read-out: Plant response rating, Lambsquarters",100%
same,pest or weed control at 125 g/ha,"[8]; pre-emergence, Preemergence, scale 0 to 100 (0 no effect, 100 complete control), read-out: Plant response rating, Lambsquarters",90%
same,pest or weed control at 500 g/ha,"[8]; pre-emergence, Preemergence, scale 0 to 100 (0 no effect, 100 complete control), read-out: Lambsquarters plant response rating",100%
same,pest or weed control at 125 g/ha,"[9]; post-emergence, Postemergence, scale 0 to 100 (0 no effect, 100 complete control), read-out: Pigweed plant response rating",100%
same,pest or weed control at 500 g/ha,"[9]; post-emergence, Postemergence, scale 0 to 100, read-out: Plant response rating, Pigweed",100%
same,pest or weed control at 125 g/ha,"[9]; pre-emergence, Preemergence, scale 0 to 100 (0 no effect, 100 complete control), read-out: Plant response rating, Pigweed",100%
same,pest or weed control at 500 g/ha,"[9]; pre-emergence, Preemergence, scale 0 to 100 (0 no effect, 100 complete control), read-out: Pigweed plant response rating",100%
same,pest or weed control at 125 g/ha,"[10]; post-emergence, Postemergence, scale 0 to 100 (0 no effect, 100 complete control), read-out: Velvetleaf plant response rating",80%
same,pest or weed control at 500 g/ha,"[10]; post-emergence, Postemergence, scale 0 to 100, read-out: Plant response rating, Velvetleaf",100%
same,pest or weed control at 125 g/ha,"[10]; pre-emergence, Preemergence, scale 0 to 100 (0 no effect, 100 complete control), read-out: Plant response rating, Velvetleaf",80%
same,pest or weed control at 500 g/ha,"[10]; pre-emergence, Preemergence, scale 0 to 100 (0 no effect, 100 complete control), read-out: Velvetleaf plant response rating",100%
same,pest or weed control at 125 g/ha,"[11]; Echinochloa crus-galli, post-emergence, Postemergence, 125 g ai/ha, scale 0 to 100 (0 no effect, 100 complete control), read-out: Barnyardgrass plant response rating",90%
same,pest or weed control at 500 g/ha,"[11]; Echinochloa crus-galli, post-emergence, Postemergence, scale 0 to 100, read-out: Plant response rating, Barnyardgrass",90%
same,pest or weed control at 500 g/ha,"[11]; Echinochloa crus-galli, pre-emergence, Preemergence, scale 0 to 100 (0 no effect, 100 complete control), read-out: Barnyardgrass plant response rating",90%
same,"Plant response rating, Barnyardgrass",[11]; [16],70
same,"Foxtail, Giant plant response rating",[12]; [17],80
same,"Plant response rating, Foxtail, Giant",[12]; [16],50
same,pest or weed control at 500 g/ha,"[12]; post-emergence, Postemergence, scale 0 to 100, read-out: Plant response rating, Foxtail, Giant",90%
same,pest or weed control at 500 g/ha,"[12]; pre-emergence, Preemergence, scale 0 to 100 (0 no effect, 100 complete control), read-out: Foxtail, Giant plant response rating",90%
same,pest or weed control at 125 g/ha,"[13]; post-emergence, Postemergence, scale 0 to 100 (0 no effect, 100 complete control), read-out: Surinam Grass plant response rating",80%
same,pest or weed control at 500 g/ha,"[13]; post-emergence, Postemergence, scale 0 to 100, read-out: Plant response rating, Surinam Grass",90%
same,pest or weed control at 125 g/ha,"[13]; pre-emergence, Preemergence, scale 0 to 100 (0 no effect, 100 complete control), read-out: Plant response rating, Surinam Grass",60%
same,pest or weed control at 500 g/ha,"[13]; pre-emergence, Preemergence, scale 0 to 100 (0 no effect, 100 complete control), read-out: Surinam Grass plant response rating",90%
same,Wheat plant response rating,[14]; [17],0
same,plant injury at 500 g/ha,"[14]; Triticum aestivum, post-emergence, Postemergence, scale 0 to 100, read-out: Plant response rating, Wheat",0%
same,plant injury at 125 g/ha,"[14]; Triticum aestivum, pre-emergence, Preemergence, 125 g ai/ha, scale 0 to 100 (0 no effect, 100 complete control), read-out: Plant response rating, Wheat",60%
same,plant injury at 500 g/ha,"[14]; Triticum aestivum, pre-emergence, Preemergence, scale 0 to 100 (0 no effect, 100 complete control), read-out: Wheat plant response rating",80%
